# From the supplement of paper PMC11061612
# Tests used:
# [1] = test system: ME-1 (Acute Myeloid Leukemia); assay: Bliss excess, mean over the matrix (fraction); higher = more synergy
# Procedure, shortened: (§1)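 Bliss excess equals the observed combination effect minus the expected value EA + EB − EA·EB, where EA and EB are the effects of each agent alone. Combination Emax is the second-highest inhibition within the matrix. Inhibition was scaled from CellTiter-Glo 2.0 luminescence, with 0 set by vehicle wells and 1 by blank wells, after 72 hours of two-drug dosing of cells plated in 1536-well plates.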
# KELLY (Neuroblastoma) = assay: as above
# Procedure, shortened: as §1
# [2] = test system: LS-180 (Colorectal Carcinoma); assay: as above
# Procedure, shortened: as §1
# [3] = test system: RC-K8 (B-Cell Non-Hodgkin's Lymphoma); assay: as above
# Procedure, shortened: as §1
# [4] = test system: LNCaP-Clone-FGC (Prostate Carcinoma); assay: as above
# Procedure, shortened: as §1
# [5] = test system: Ramos-2G6-4C10 (Burkitt's Lymphoma); assay: as above
# Procedure, shortened: as §1
# [6] = test system: Calu-3 (Lung Adenocarcinoma); assay: combination Emax (second highest fraction inhibited in the dose matrix, 72 h); higher = more inhibition; extreme values may be limits of the assay
# Procedure, shortened: as §1
# AGS (Gastric Carcinoma) = assay: as above
# Procedure, shortened: as §1
# [7] = test system: HO-1-N-1 (Oral Cavity Carcinoma); assay: as above
# Procedure, shortened: as §1
# 42-MG-BA (Glioblastoma) = assay: as above
# Procedure, shortened: as §1
# [8] = test system: NCI-H2085 (Non-Small Cell Lung Carcinoma); assay: as above
# Procedure, shortened: as §1
# [9] = test system: Daoy (Other Solid Carcinomas); assay: as above
# Procedure, shortened: as §1
# [10] = test system: HCC-78 (Lung Adenocarcinoma); assay: as above
# Procedure, shortened: as §1
# [11] = test system: DoTc2-4510 (Cervical Carcinoma); assay: as above
# Procedure, shortened: as §1
# [12] = test system: TE-9 (Esophageal Squamous Cell Carcinoma); assay: as above
# Procedure, shortened: as §1
# [13] = test system: HuP-T4 (Pancreatic Carcinoma); assay: as above
# Procedure, shortened: as §1
# [14] = test system: LNCaP-Clone-FGC (Prostate Carcinoma); assay: as above
# Procedure, shortened: as §1
# [15] = test system: MDA-MB-361 (Breast Carcinoma); assay: as above
# Procedure, shortened: as §1
# [16] = test system: CAL-148 (Breast Carcinoma); assay: as above
# Procedure, shortened: as §1
# [17] = test system: Ramos-2G6-4C10 (Burkitt's Lymphoma); assay: as above
# Procedure, shortened: as §1
SMILES,Bliss excess [1],Bliss excess (KELLY (Neuroblastoma)),Bliss excess [2],Bliss excess [3],Bliss excess [4],Bliss excess [5],combination Emax [6],combination Emax (AGS (Gastric Carcinoma)),combination Emax [7],combination Emax (42-MG-BA (Glioblastoma)),combination Emax [8],combination Emax [9],combination Emax [10],combination Emax [11],combination Emax [12],combination Emax [13],combination Emax [14],combination Emax [15],combination Emax [16],combination Emax [17]
"C=CCn1c(=O)c2cnc(Nc3ccc(N4CCN(C)CC4)cc3)nc2n1-c1cccc(C(C)(C)O)n1 [AZD1775] + C1CN(CCC1(C(=O)N[C@@H](CCO)C2=CC=C(C=C2)Cl)N)C3=NC=NC4=C3C=CN4 [Capivasertib] (first compound max 3 µM, partner max 3 µM)",-0.0726,-0.0393,-0.0513,-0.002,-0.0492,0.0099,0.466,0.976,0.781,0.733,0.631,0.999,0.626,0.723,0.816,0.691,1,0.851,0.92,0.99
"CN(CCO)CC[C@H](CSc1ccccc1)Nc1ccc(S(=O)(=O)NC(=O)c2ccc(N3CCC([C@@H](O)c4ccccc4-c4ccc(Cl)cc4)CC3)cc2)cc1S(=O)(=O)C(F)(F)F [AZD4320] + C1CN(CCC1(C(=O)N[C@@H](CCO)C2=CC=C(C=C2)Cl)N)C3=NC=NC4=C3C=CN4 [Capivasertib] (first compound max 1 µM, 7x7, partner max 3 µM)",-0.0374,-0.0433,-0.0389,-0.0241,-0.0239,0.038,0.124,0.692,0.216,0.594,0.289,0.249,0.31,0.59,0.356,0.0723,0.97,0.341,1,0.586
"CN(CCO)CC[C@H](CSc1ccccc1)Nc1ccc(S(=O)(=O)NC(=O)c2ccc(N3CCC([C@@H](O)c4ccccc4-c4ccc(Cl)cc4)CC3)cc2)cc1S(=O)(=O)C(F)(F)F [AZD4320] + C=CCn1c(=O)c2cnc(Nc3ccc(N4CCN(C)CC4)cc3)nc2n1-c1cccc(C(C)(C)O)n1 [AZD1775] (first compound max 1 µM, partner max 1 µM)",0.0475,0.0505,0.0046,0.0829,-0.0222,0.0808,0.182,0.999,0.549,0.293,0.585,0.99,0.232,0.884,0.34,0.395,0.773,0.918,0.994,1
"CN(CCO)CC[C@H](CSc1ccccc1)Nc1ccc(S(=O)(=O)NC(=O)c2ccc(N3CCC([C@@H](O)c4ccccc4-c4ccc(Cl)cc4)CC3)cc2)cc1S(=O)(=O)C(F)(F)F [AZD4320] + CCN(CCO)CCCOc1ccc2c(Nc3cc(CC(=O)Nc4cccc(F)c4)[nH]n3)ncnc2c1 [AZD2811] (first compound max 1 µM, 7x7, partner max 1 µM)",0.0068,0.051,-0.0044,0.17,-0.0105,0.18,0.168,0.979,0.886,0.831,0.692,0.715,0.2,0.735,0.451,0.274,0.245,0.679,1,0.909
"CN(CCO)CC[C@H](CSc1ccccc1)Nc1ccc(S(=O)(=O)NC(=O)c2ccc(N3CCC([C@@H](O)c4ccccc4-c4ccc(Cl)cc4)CC3)cc2)cc1S(=O)(=O)C(F)(F)F [AZD4320] + CN(C)CCCOc1ccc(-c2ccc3ncc4c(c3c2)n(C2CCOCC2)c(=O)n4C)cn1 [AZD0156] (first compound max 1 µM, 7x7, partner max 1 µM)",-0.0069,0.077,-0.0209,0.0161,-0.089,0.026,0.117,0.237,0.156,0.274,0.242,0.156,0.147,0.6,0.263,0.127,0.335,0.205,0.504,0.345
"CN(CCO)CC[C@H](CSc1ccccc1)Nc1ccc(S(=O)(=O)NC(=O)c2ccc(N3CCC([C@@H](O)c4ccccc4-c4ccc(Cl)cc4)CC3)cc2)cc1S(=O)(=O)C(F)(F)F [AZD4320] + C[C@@H]1COCCN1C2=NC(=NC(=C2)C3(CC3)[S@](=N)(=O)C)C4=C5C=CNC5=NC=C4 [AZD6738] (first compound max 1 µM, 7x7, partner max 10 µM)",0.0166,0.033,-0.0306,-0.011,-0.0328,-0.0342,0.284,0.993,0.937,0.675,0.502,0.972,0.637,0.912,0.372,0.621,0.782,0.918,0.978,0.946
"CN(CCO)CC[C@H](CSc1ccccc1)Nc1ccc(S(=O)(=O)NC(=O)c2ccc(N3CCC([C@@H](O)c4ccccc4-c4ccc(Cl)cc4)CC3)cc2)cc1S(=O)(=O)C(F)(F)F [AZD4320] + C[C@@H](Nc1cc(F)cc(F)c1)c1cc(C(=O)N(C)C)cc2c(=O)cc(N3CCOCC3)oc12 [AZD8186] (first compound max 1 µM, 7x7, partner max 3 µM)",0.0013,0.029,-0.0535,-0.015,-0.0005,0.175,0.242,0.974,0.735,0.757,0.584,0.837,0.528,0.911,0.312,0.515,0.912,0.672,0.996,0.685
"CN(CCO)CC[C@H](CSc1ccccc1)Nc1ccc(S(=O)(=O)NC(=O)c2ccc(N3CCC([C@@H](O)c4ccccc4-c4ccc(Cl)cc4)CC3)cc2)cc1S(=O)(=O)C(F)(F)F [AZD4320] + Cc1cc2ncnn2cc1Nc1ncc2c(n1)n(C1CCOCC1)c(=O)n2C [AZD7648] (first compound max 1 µM, 7x7, partner max 10 µM)",0.0237,0.0306,-0.0458,0.0198,-0.0622,0.0379,0.182,0.318,0.226,0.312,0.177,0.152,0.175,0.499,0.246,0.156,0.415,0.459,0.744,0.718
"CN(CCO)CC[C@H](CSc1ccccc1)Nc1ccc(S(=O)(=O)NC(=O)c2ccc(N3CCC([C@@H](O)c4ccccc4-c4ccc(Cl)cc4)CC3)cc2)cc1S(=O)(=O)C(F)(F)F [AZD4320] + Cn1cnc2c(F)c(Nc3ccc(Br)cc3Cl)c(C(=O)NOCCO)cc21 [Selumetinib] (first compound max 1 µM, 7x7, partner max 3 µM)",0.0484,0.0525,0.0159,0.0467,0.0009,0.138,0.245,1,0.619,0.694,0.367,0.817,0.305,0.906,0.438,0.544,0.414,0.334,0.996,0.472
"COc1nnc2ccc(N3CCC(c4ccc(OCCN5CCN(C)C(=O)[C@H]5C)cc4)CC3)nn12 [AZD5153] + C=CCn1c(=O)c2cnc(Nc3ccc(N4CCN(C)CC4)cc3)nc2n1-c1cccc(C(C)(C)O)n1 [AZD1775] (first compound max 1 µM, partner max 1 µM)",-0.0446,-0.0581,-0.049,-0.101,-0.0733,-0.0657,0.632,0.923,0.813,0.688,0.505,0.908,0.421,0.473,0.275,0.549,0.758,0.791,0.907,1
"COc1nnc2ccc(N3CCC(c4ccc(OCCN5CCN(C)C(=O)[C@H]5C)cc4)CC3)nn12 [AZD5153] + CC1(C)CCC(CN2CCN(c3ccc(C(=O)NS(=O)(=O)c4ccc(NCC5CCOCC5)c([N+](=O)[O-])c4)c(Oc4cnc5[nH]ccc5c4)c3)CC2)=C(c2ccc(Cl)cc2)C1 [Venetoclax] (first compound max 1 µM, 7x7, partner max 1 µM)",0.0529,-0.0857,-0.0614,-0.0587,-0.0468,-0.0041,0.621,0.774,0.682,0.56,0.404,0.487,0.411,0.385,0.13,0.485,0.743,0.443,0.557,0.589
"COc1nnc2ccc(N3CCC(c4ccc(OCCN5CCN(C)C(=O)[C@H]5C)cc4)CC3)nn12 [AZD5153] + CCN(CCO)CCCOc1ccc2c(Nc3cc(CC(=O)Nc4cccc(F)c4)[nH]n3)ncnc2c1 [AZD2811] (first compound max 1 µM, 7x7, partner max 1 µM)",-0.0534,-0.0406,-0.111,0.0154,-0.0081,-0.0004,0.635,0.936,0.815,0.783,0.484,0.606,0.489,0.381,0.218,0.542,0.743,0.49,0.927,0.666
